# Experimental data from patent US12545685B2 (Daiichi Sankyo Company, Limited, priority 2011, dated 2026).
# Experiments:
# [1] = target: T1, Mdm2/p53 binding (GST-Mdm2 / His-p53) (Homo sapiens, UniProt Q00987, L33E); assay: Mdm2/p53 binding assay (HTRF, His-p53 and GST-Mdm2); details: His-p53 (aa 1-132) and GST-Mdm2 (aa 25-108, L33E) 6.25 nM each; 25°C, 1 hour; values given as ranges
# T1 construct: Mdm2 partial protein having Mdm2 amino acids at positions 25 to 108
# Method in brief: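 His-p53 (aa 1–132) and GST-Mdm2 (aa 25–108, L33E) were prepared at 6.25 nM each in the protein dilution (20 mM HEPES pH 7.4, 150 mM NaCl, 0.1% BSA). Compound in 10% DMSO buffer and XL665 anti-His/Eu anti-GST antibodies (KF buffer) were added, with 1 h at 25 °C. The 665/620 nm TR-FRET ratio gave T/C and a sigmoid-fitted IC50.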
# [2] = test system: human lung cancer-derived cell line NCI-H460 having wild-type p53; assay: Cell growth inhibition assay (MTT); format: cell-based; details: 72 h, NCI-H460 cells, 3 days culture, values given as ranges, read-out: 50% growth inhibition concentration (GI50 value)
# Experimental: A cell growth inhibition assay was conducted using a human lung cancer-derived cell line NCI-H460 having wild-type p53.
# NCI-H460 cells were suspended in a medium (RPMI1640 medium containing 10% fetal bovine serum) and the suspension was added in an amount of 500 cells/150 μl/well to a 96-well plate. A test compound was dissolved in DMSO and this solution was diluted with medium to prepare a sample solution (DMSO concentration: 1% or lower). On the next day, medium nonsupplemented with the test compound, or the sample solution, was added in an amount of 50 μl/well. Cells were then cultured at 37° ° C. for 3 days in a 5% CO2 atmosphere.
# An MTT assay was conducted immediately after the nonsupplemented medium or the sample solution was added. Another MTT assay was conducted after culturing the cells for 3 days. The MIT assays were conducted as shown below.
# A 5 mg/ml MTT (3-(4,5-dimethylthiazol-2-yl)-2,5-diphenyltetrazolium bromide, Sigma-Aldrich Co., M-2128) solution was prepared using a phosphate buffer solution (Dulbecco's Phosphate-buffered Saline). This MIT solution was added in an amount of 20 μl/well. Then the plate was cultured at 37° ° C. for 4 hours in a 5% CO2 atmosphere. The plate was centrifuged at 1200 rpm for 5 minutes and then the culture supernatant was removed by aspiration using a dispenser. DMSO was added in an amount of 150 μl/well to dissolve generated formazan. The plate was stirred using a plate mixer for uniform color development from each well. The absorbance of each well was measured at OD 540 nm and at a reference OD (660 nm) using a plate reader (SpectraMax PLUS384, Molecular Devices, CA, USA).
# The OD value measured on the day of adding the sample solution was defined as S. The OD value measured three days after addition of the sample solution was defined as T. The OD value measured three days after addition of the DMSO dilution was defined as C. T/C (%) was determined at each concentration according to the formula shown below in order to prepare a dose response curve, from which 50% growth inhibition concentration (GI50 value) was calculated.
# T1 sequence (Q00987 25-108 L33E): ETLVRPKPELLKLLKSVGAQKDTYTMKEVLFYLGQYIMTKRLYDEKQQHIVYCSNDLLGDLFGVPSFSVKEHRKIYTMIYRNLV
IC50 [1] [nM],GI50 [2] [nM],SMILES
50 to 100,< 100,"CC1(C)CCC2(CC1)N[C@@H](C(=O)N[C@@H]1CC[C@@H](CCO)OC1)[C@H](c1ccnc(Cl)c1F)[C@]21C(=O)Nc2cc(Cl)ccc21 [Example 160, (3′R, 4′S,5′R)-6″-chloro-4′-(2-chloro-3-fluoropyridin-4-yl)-N-[(3R,6S)-6-(2-hydroxyethyl)tetrahydro-2H-pyran-3-yl]-4,4-dimethyl-2″-oxo-1″,2″-dihydrodispiro[cyclohexane-1,2′-pyrrolidine-3′,3″-indole]-5′-carboxamide]"
1 to 50,< 100,"CC1(C)CCC2(CC1)N[C@@H](C(=O)N[C@@H]1CC[C@@H](C(=O)N3CCOCC3)OC1)[C@H](c1ccnc(Cl)c1F)[C@]21C(=O)Nc2cc(Cl)ccc21 [Example 110, (3′R, 4′S,5′R)-6″-chloro-4′-(2-chloro-3-fluoropyridin-4-yl)-4,4-dimethyl-N-[(3R,6S)-6-(morpholin-4-ylcarbonyl)tetrahydro-2H-pyran-3-yl]-2″-oxo-1″,2″-dihydrodispiro[cyclohexane-1,2′-pyrrolidine-3′,3″-indole]-5′-carboxamide]"
1 to 50,> 5000,"CC1(C)CCC2(CC1)N[C@@H](C(=O)N[C@@H]1CC[C@@H](C(=O)O)OC1)[C@H](c1ccnc(Cl)c1F)[C@]21C(=O)Nc2cc(Cl)ccc21 [Example 174, (2S,5R)-5-({[(3′B, 4′S,5′R)-6″-chloro-4′-(2-chloro-3-fluoropyridin-4-yl)-4,4-dimethyl-2″-oxo-1′″, 2″-dihydrodispiro[cyclohexane-1,2-pyrrolidine-3′,3″-indole]-5′-yl]carbonyl}amino)tetrahydro-2H-pyran-2-carboxylic acid]"
50 to 100,100 to 500,"CC1(C)CCC2(CC1)N[C@@H](C(=O)N[C@H]1C[C@H](c3nnco3)C1)[C@H](c1ccnc(Cl)c1F)[C@]21C(=O)Nc2cc(Cl)ccc21 [Example 112, (3′R, 4′S, S′R)-6″-chloro-4′-(2-chloro-3-fluoropyridin-4-yl)-4,4-dimethyl-N-[trans-3-(1,3,4-oxadiazol-2-yl)cyclobutyl]-2″-oxo-1″,2″-dihydrodispiro[cyclohexane-1,2′-pyrrolidine-3′,3″-indole]-5-carboxamide]"
1 to 50,1000 to 5000,"CC1(C)CCC2(CC1)N[C@@H](C(=O)N[C@H]1CC[C@H](O)CC1)[C@H](c1cccc(Cl)c1F)[C@]21C(=O)Nc2nc(Cl)ccc21 (relative stereo) [Example 6, (3′R, 4′S,5′R)-6″-chloro-4′-(3-chloro-2-fluorophenyl)-N-(trans-4-hydroxycyclohexyl)-4,4-dimethyl-2″-oxo-1″,2″-dihydrodispiro[cyclohexane-1,2′-pyrrolidine-3′,3″-pyrrolo[2,3-b]pyridine]-5′-carboxamide]"
100 to 500,1000 to 5000,"O=C(N[C@H]1CC[C@H](O)CC1)[C@@H]1NC2(CCCCC2)[C@@]2(C(=O)Nc3cc(Cl)ccc32)[C@H]1c1cccc(Cl)c1F (relative stereo) [Example 4, (3′R, 4′S,5′R)-6″-chloro-4′-(3-chloro-2-fluorophenyl)-N-(trans-4-hydroxycyclohexyl)-2″-oxo-1″,2″-dihydrodispiro[cyclohexane-1,2′-pyrrolidine-3′,3″-indole]-5′-carboxamide]"
50 to 100,100 to 500,"CC1(C)CCC2(CC1)N[C@@H](C(=O)N[C@H]1CC[C@H](c3nnco3)CC1)[C@H](c1ccnc(Cl)c1F)[C@]21C(=O)Nc2cc(Cl)ccc21 (relative stereo) [Example 18, (3′R, 4′S,5′R)-6″-chloro-4′-(2-chloro-3-fluoropyridin-4-yl)-4,4-dimethyl-N-[trans-4-(1,3,4-oxadiazol-2-yl)cyclohexyl]-2″-oxo-1″,2″-dihydrodispiro[cyclohexane-1,2′-pyrrolidine-3′,3″-indole]-5′-carboxamide]"
1 to 50,500 to 1000,"CC1(C)CCC2(CC1)N[C@@H](C(=O)N[C@H]1C[C@H](C(N)=O)C1)[C@H](c1ccnc(Cl)c1F)[C@]21C(=O)Nc2cc(Cl)ccc21 [Example 114, (3′R, 4′S,5′R)—N-(trans-3-carbamoylcyclobutyl)-6″-chloro-4′-(2-chloro-3-fluoropyridin-4-yl)-4,4-dimethyl-2″-oxo-1″,2″-dihydrodispiro[cyclohexane-1,2′-pyrrolidine-3′,3″-indole]-5′-carboxamide]"
50 to 100,500 to 1000,"CC1(C)CCC2(CC1)N[C@@H](C(=O)N[C@@H]1CC[C@@H](C(C)(C)O)OC1)[C@H](c1ccnc(Cl)c1F)[C@]21C(=O)Nc2nc(Cl)ccc21 [Example 47, (3′R, 4′S,5′R)-6″-chloro-4′-(2-chloro-3-fluoropyridin-4-yl)-N-[(3R,6S)-6-(1-hydroxy-1-methylethyl)tetrahydro-2H-pyran-3-yl]-4,4-dimethyl-2″-oxo-1″,2″-dihydrodispiro[cyclohexane-1,2′-pyrrolidine-3′,3″-pyrrolo[2,3-b]pyridine]-5′-carboxamide]"
1 to 50,100 to 500,"CO[C@@H]1C[C@@H](NC(=O)[C@@H]2NC3(CCC(C)(C)CC3)[C@@]3(C(=O)Nc4cc(Cl)ccc43)[C@H]2c2ccnc(Cl)c2F)CO[C@@H]1CO [Example 69, (3′R, 4′S,5′R)-6″-chloro-4′-(2-chloro-3-fluoropyridin-4-yl)-N-((3R,5R,6R)-6-(hydroxymethyl)-5-methoxytetrahydro-2H-pyran-3-yl)-4,4-dimethyl-2″-oxo-1″,2″-dihydrodispiro[cyclohexane-1,2′-pyrrolidine-3′,3″-indole]-5′-carboxamide]"
50 to 100,100 to 500,"CC1(C)CCC2(CC1)N[C@@H](C(=O)N[C@H]1CC[C@H](c3nnco3)CC1)[C@H](c1cccc(Cl)c1F)[C@]21C(=O)Nc2cc(Cl)ccc21 [Example 183, (3′R, 4′S,5′R)-6′-chloro-4′-(3-chloro-2-fluorophenyl)-4,4-dimethyl-N-[trans-4-(1,3,4-oxadiazol-2-yl)cyclohexyl]-2″-oxo-1″,2″-dihydrodispiro[cyclohexane-1,2′-pyrrolidine-3′,3″-indole]-5′-carboxamide]"
,< 100,"CC1(C)CCC2(CC1)N[C@@H](C(=O)N[C@@H]1CC[C@@H](C(N)=O)OC1)[C@H](c1ccnc(Cl)c1F)[C@]21C(=O)Nc2cc(Cl)ccc21 [Example 70, (3′R, 4′S,5′R)—N-[(3R,6S)-6-carbamoyltetrahydro-2H-pyran-3-yl]-6″-chloro-4′-(2-chloro-3-fluoropyridin-4-yl)-4,4-dimethyl-2″-oxo-1″,2″-dihydrodispiro[cyclohexane-1,2′-pyrrolidine-3′,3″-indole]-5′-carboxamide]"
,100 to 500,"CC1(C)CCC2(CC1)N[C@@H](C(=O)N[C@@H]1CC[C@@H](C(O)CO)OC1)[C@H](c1ccnc(Cl)c1F)[C@]21C(=O)Nc2cc(Cl)ccc21 (single isomer, unassigned) [Example 90]"
50 to 100,,"O=C(N[C@H]1CC[C@H](c2nnco2)CC1)[C@@H]1NC2(CC(CF)(CF)C2)[C@@]2(C(=O)Nc3cc(Cl)ccc32)[C@H]1c1ccnc(Cl)c1F [Example 95, (3′R, 4′S,5′R)-6″-chloro-4′-(2-chloro-3-fluoropyridin-4-yl)-3,3-bis(fluoromethyl)-N-[trans-4-(1,3,4-oxadiazol-2-yl)cyclohexyl]-2″-oxo-1″,2′-dihydrodispiro[cyclobutane-1,2′-pyrrolidine-3′,3″-indole]-5′-carboxamide]"
